Experimental data: patent publication US10640506B2, “Cyclobutyl substituted pyrrolopyridine and pyrrolopyrimidines derivatives as JAK inhibitors” (Incyte Corporation, priority 2010, dated 2020)
Read-outs that look alike come from different tables or passages of the source.

Tests used:
[1] = target: human JAK1 (a.a. 837-1142) (Homo sapiens, UniProt P23458); experiment: In vitro JAK kinase assay (HTRF, phosphorylation of biotinylated peptide), JAK1; type: biochemical
Protocol: Compounds herein were tested for inhibitory activity of JAK targets according to the following in vitro assay described in Park et al., Analytical Biochemistry 1999, 269, 94-104. The catalytic domains of human JAK1 (a.a. 837-1142) and JAK2 (a.a. 828-1132) with an N-terminal His tag were expressed using baculovirus in insect cells and purified. The catalytic activity of JAK1 and JAK2 was assayed by measuring the phosphorylation of a biotinylated peptide. The phosphorylated peptide was detected by homogenous time resolved fluorescence (HTRF). […] Reactions were carried out at room temperature for 1 hour and then stopped with 20 μL 45 mM EDTA, 300 nM SA-APC, 6 nM Eu-Py20 in assay buffer (Perkin Elmer, Boston, Mass.). Binding to the Europium labeled antibody took place for 40 minutes and HTRF signal was measured on a Fusion plate reader (Perkin Elmer, Boston, Mass.). […] Data is indicated as ranges, wherein “+” is less than 10 nM; “++” is 10 nM to 25 nM; “+++” is greater than 25 nM to 100 nM; and “++++” is greater than 100 nM. Greater than 25 nM to 100 nM specifies a range with a lower endpoint “at greater than 25 nM” and an upper endpoint at 100 nM.

JAK2 (a.a. 828-1132) = target: T1, JAK2 (a.a. 828-1132) (Homo sapiens, UniProt O60674); experiment: In vitro JAK kinase assay (HTRF, phosphorylation of biotinylated peptide), JAK2; type: biochemical
T1 construct: JAK2 (a.a. 828-1132); His tag (N)
T1 sequence (O60674 828-1132): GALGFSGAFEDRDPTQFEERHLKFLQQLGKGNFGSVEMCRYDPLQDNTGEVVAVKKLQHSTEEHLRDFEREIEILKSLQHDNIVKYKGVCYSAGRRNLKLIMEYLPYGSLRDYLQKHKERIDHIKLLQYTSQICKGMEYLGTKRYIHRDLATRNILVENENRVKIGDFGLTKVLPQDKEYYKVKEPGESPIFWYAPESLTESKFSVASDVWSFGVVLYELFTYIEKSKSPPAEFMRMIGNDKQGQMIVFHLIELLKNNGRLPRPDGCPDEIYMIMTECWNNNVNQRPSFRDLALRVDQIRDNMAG
Protocol: Compounds herein were tested for inhibitory activity of JAK targets according to the following in vitro assay described in Park et al., Analytical Biochemistry 1999, 269, 94-104. The catalytic domains of human JAK1 (a.a. 837-1142) and JAK2 (a.a. 828-1132) with an N-terminal His tag were expressed using baculovirus in insect cells and purified. The catalytic activity of JAK1 and JAK2 was assayed by measuring the phosphorylation of a biotinylated peptide. The phosphorylated peptide was detected by homogenous time resolved fluorescence (HTRF). […] Reactions were carried out at room temperature for 1 hour and then stopped with 20 μL 45 mM EDTA, 300 nM SA-APC, 6 nM Eu-Py20 in assay buffer (Perkin Elmer, Boston, Mass.). Binding to the Europium labeled antibody took place for 40 minutes and HTRF signal was measured on a Fusion plate reader (Perkin Elmer, Boston, Mass.). See Tables A-F for data related to compounds of the Examples (at 1 mM). Data is indicated as ranges, wherein “+” is less than 10 nM; “++” is 10 nM to 25 nM; “+++” is greater than 25 nM to 100 nM; and “++++” is greater than 100 nM. Greater than 25 nM to 100 nM specifies a range with a lower endpoint “at greater than 25 nM” and an upper endpoint at 100 nM.

[2] = read-out: JAK1 IC50 (nM) at 1 mM, Table E, 1 mM ATP

Chain of human JAK1 (a.a. 837-1142) (P23458 849-1154): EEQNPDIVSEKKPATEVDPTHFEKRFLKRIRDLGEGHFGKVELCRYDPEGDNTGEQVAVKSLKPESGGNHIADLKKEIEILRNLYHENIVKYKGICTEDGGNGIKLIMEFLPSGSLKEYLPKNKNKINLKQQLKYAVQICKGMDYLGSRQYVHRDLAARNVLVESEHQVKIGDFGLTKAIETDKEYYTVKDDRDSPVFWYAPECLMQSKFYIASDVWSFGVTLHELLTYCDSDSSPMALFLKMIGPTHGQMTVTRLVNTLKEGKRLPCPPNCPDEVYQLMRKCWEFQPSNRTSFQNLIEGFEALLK

## 3-[(4-{trans-3-(cyanomethyl)-3-[4-(7H-pyrrolo[2,3-d]pyrimidin-4-yl)-1H-pyrazol-1-yl]cyclobutyl}piperazin-1-yl)methyl]-5-[(dimethylamino)methyl]benzonitrile [Example 43]
[1]; read-out: JAK1 IC50 (nM) at 1 mM ATP, Table F
  IC50: 25 to 100 nM
JAK2 (a.a. 828-1132); read-out: JAK2 IC50 (nM) at 1 mM ATP, Table F
  IC50: > 100 nM

## N#CC[C@]1(n2cc(-c3ncnc4[nH]ccc34)cn2)C[C@H](N2CCN(C(=O)N[C@H]3CCC[C@@H]3O)CC2)C1 (racemic) [Example 88, 4-{trans-3-(cyanomethyl)-3-[4-(7H-pyrrolo[2,3-d]pyrimidin-4-yl)-1H-pyrazol-1-yl]cyclobutyl}-N-(2-hydroxycyclopentyl)piperazine-1-carboxamide]
[1]; Table F, 1 mM ATP
  IC50: < 10 nM
JAK2 (a.a. 828-1132); Table F, 1 mM ATP
  IC50: 25 to 100 nM

## N#CC[C@]1(n2cc(-c3ncnc4[nH]ccc34)cn2)C[C@H](N2CCN(C(=O)N[C@H]3CCC[C@H]3O)CC2)C1 (single isomer, unassigned) [Example 89]
[1]; Table F, 1 mM ATP
  IC50: < 10 nM
JAK2 (a.a. 828-1132); Table F, 1 mM ATP
  IC50: 25 to 100 nM

## COCc1cc(OC2CCN([C@H]3C[C@@](CC#N)(n4cc(-c5ncnc6[nH]ccc56)cn4)C3)CC2)nc(C(F)(F)F)c1 (single isomer, unassigned) [Example 121, {cis-3-(4-{[4-(methoxymethyl)-6-(trifluoromethyl)pyridin-2-yl]oxy}piperidin-1-yl)-1-[4-(7H-pyrrolo[2,3-d]pyrimidin-4-yl)-1H-pyrazol-1-yl]cyclobutyl}acetonitrile]
[1]; Table F, 1 mM ATP
  IC50: 25 to 100 nM
JAK2 (a.a. 828-1132); Table F, 1 mM ATP
  IC50: > 100 nM

## COCc1cc(OC2CCN([C@H]3C[C@](CC#N)(n4cc(-c5ncnc6[nH]ccc56)cn4)C3)CC2)nc(C(F)(F)F)c1 (single isomer, unassigned) [Example 122, {trans-3-(4-{[4-(methoxymethyl)-6-(trifluoromethyl)pyridin-2-yl]oxy}piperidin-1-yl)-1-[4-(7H-pyrrolo[2,3-d]pyrimidin-4-yl)-1H-pyrazol-1-yl]cyclobutyl}acetonitrile]
[1]; Table F, 1 mM ATP
  IC50: < 10 nM
JAK2 (a.a. 828-1132); Table F, 1 mM ATP
  IC50: > 100 nM

## N#CC[C@]1(n2cc(-c3ncnc4[nH]ccc34)cn2)C[C@H](N2CCC(Oc3cc(CO)cc(C(F)(F)F)n3)CC2)C1 (single isomer, unassigned) [Example 123, {trans-3-(4-{[4-(hydroxymethyl)-6-(trifluoromethyl)pyridin-2-yl]oxy}piperidin-1-yl)-1-[4-(7H-pyrrolo[2,3-d]pyrimidin-4-yl)-1H-pyrazol-1-yl]cyclobutyl}acetonitrile]
[1]; Table F, 1 mM ATP
  IC50: < 10 nM
JAK2 (a.a. 828-1132); Table F, 1 mM ATP
  IC50: > 100 nM

## N#CC[C@]1(n2cc(-c3ncnc4[nH]ccc34)cn2)C[C@@H](N2CCC(Oc3cc(CO)cc(C(F)(F)F)n3)CC2)C1 (single isomer, unassigned) [Example 124, {cis-3-(4-{[4-(hydroxymethyl)-6-(trifluoromethyl)pyridin-2-yl]oxy}piperidin-1-yl)-1-[4-(7H-pyrrolo[2,3-d]pyrimidin-4-yl)-1H-pyrazol-1-yl]cyclobutyl}acetonitrile]
[1]; Table F, 1 mM ATP
  IC50: 25 to 100 nM
JAK2 (a.a. 828-1132); Table F, 1 mM ATP
  IC50: > 100 nM

## CC(C)(O)c1cc(OC2CCN([C@H]3C[C@](CC#N)(n4cc(-c5ncnc6[nH]ccc56)cn4)C3)CC2)nc(C(F)(F)F)c1 (single isomer, unassigned) [Example 125, {trans-3-(4-{[4-(1-hydroxy-1-methylethyl)-6-(trifluoromethyl)pyridin-2-yl]oxy}piperidin-1-yl)-1-[4-(7H-pyrrolo[2,3-d]pyrimidin-4-yl)-1H-pyrazol-1-yl]cyclobutyl}acetonitrile]
[1]; Table F, 1 mM ATP
  IC50: < 10 nM
JAK2 (a.a. 828-1132); Table F, 1 mM ATP
  IC50: 25 to 100 nM

## CC(C)(O)c1cc(OC2CCN([C@H]3C[C@@](CC#N)(n4cc(-c5ncnc6[nH]ccc56)cn4)C3)CC2)nc(C(F)(F)F)c1 (single isomer, unassigned) [Example 126, {cis-3-(4-{[4-(1-hydroxy-1-methylethyl)-6-(trifluoromethyl)pyridin-2-yl]oxy}piperidin-1-yl)-1-[4-(7H-pyrrolo[2,3-d]pyrimidin-4-yl)-1H-pyrazol-1-yl]cyclobutyl}acetonitrile]
[1]; Table F, 1 mM ATP
  IC50: 10 to 25 nM
JAK2 (a.a. 828-1132); Table F, 1 mM ATP
  IC50: > 100 nM

## N#CC[C@]1(n2cc(-c3ncnc4[nH]ccc34)cn2)C[C@@H](N2CCC(Oc3cc(C#N)cc(C(F)(F)F)n3)CC2)C1 (single isomer, unassigned) [Example 133, 2-[(1-{cis-3-(cyanomethyl)-3-[4-(7H-pyrrolo[2,3-d]pyrimidin-4-yl)-1H-pyrazol-1-yl]cyclobutyl}piperidin-4-yl)oxy]-6-(trifluoromethyl)isonicotinonitrile]
[1]; Table F, 1 mM ATP
  IC50: 25 to 100 nM
JAK2 (a.a. 828-1132); Table F, 1 mM ATP
  IC50: > 100 nM

## N#CC[C@]1(n2cc(-c3ncnc4[nH]ccc34)cn2)C[C@H](N2CCC(Oc3cc(C#N)cc(C(F)(F)F)n3)CC2)C1 (single isomer, unassigned) [Example 134, 2-1(1-{trans-3-(cyanomethyl)-3-[4-(7H-pyrrolo[2,3-d]pyrimidin-4-yl)-1H-pyrazol-1-yl]cyclobutyl}piperidin-4-yl)oxyl-6-(trifluoromethyl)isonicotinonitrile]
[1]; Table F, 1 mM ATP
  IC50: < 10 nM
JAK2 (a.a. 828-1132); Table F, 1 mM ATP
  IC50: > 100 nM

## N#CC[C@]1(n2cc(-c3ncnc4[nH]ccc34)cn2)C[C@@H](N2CCC(Oc3cc(CN4CCOC4=O)cc(C(F)(F)F)n3)CC2)C1 (single isomer, unassigned) [Example 165, peak 1, {cis-3-(4-{[4-[(2-oxo-1,3-oxazolidin-3-yl)methyl]-6-(trifluoromethyl)pyridin-2-yl]oxy}piperidin-1-yl)-1-[4-(7H-pyrrolo[2,3-d]pyrimidin-4-yl)-1H-pyrazol-1-yl]cyclobutyl}acetonitrile]
[1]; Table F, 1 mM ATP
  IC50: 25 to 100 nM
JAK2 (a.a. 828-1132); Table F, 1 mM ATP
  IC50: > 100 nM

## N#CC[C@]1(n2cc(-c3ncnc4[nH]ccc34)cn2)C[C@H](N2CCC(Oc3cc(CN4CCOC4=O)cc(C(F)(F)F)n3)CC2)C1 (single isomer, unassigned) [Example 165, peak 2, {trans-3-(4-{[4-[(2-oxo-1,3-oxazolidin-3-yl)methyl]-6-(trifluoromethyl)pyridin-2-yl]oxy}piperidin-1-yl)-1-[4-(7H-pyrrolo[2,3-d]pyrimidin-4-yl)-1H-pyrazol-1-yl]cyclobutyl}acetonitrile]
[1]; Table F, 1 mM ATP
  IC50: < 10 nM
JAK2 (a.a. 828-1132); Table F, 1 mM ATP
  IC50: 25 to 100 nM

## CN(C)Cc1cc(F)cc(OC2CCN(C3CC(CC#N)(n4cc(-c5ncnc6[nH]ccc56)cn4)C3)CC2)c1 (single isomer, unassigned; isomer 1) [Example 40, isomer 1, {cis-3-(4-{3-[(dimethylamino)methyl]-5-fluorophenoxy}piperidin-1-yl)-1-[4-(7H-pyrrolo[2,3-d]pyrimidin-4-yl)-1H-pyrazol-1-yl]cyclobutyl}acetonitrile]
[1]; [2]
  IC50: < 10 nM
JAK2 (a.a. 828-1132); Table E, 1 mM ATP, listed as 40, isomer 1, read-out: JAK2 IC50 (nM) +
  IC50: 10 to 25 nM

## C[C@H]1CCCN1Cc1cc(F)cc(OC2CCN(C3CC(CC#N)(n4cc(-c5ncnc6[nH]ccc56)cn4)C3)CC2)c1 (single isomer, unassigned; isomer 1) [Example 41, isomer 1]
[1]; [2]
  IC50: < 10 nM
JAK2 (a.a. 828-1132); Table E, 1 mM ATP, listed as 41, isomer 1, read-out: JAK2 IC50 (nM) +
  IC50: 10 to 25 nM

## CN(C)Cc1cc(F)cc(OC2CCN(C3CC(CC#N)(n4cc(-c5ncnc6[nH]ccc56)cn4)C3)CC2)c1 (single isomer, unassigned; isomer 2) [Example 40, isomer 2, {trans-3-(4-{3-[(dimethylamino)methyl]-5-fluorophenoxy}piperidin-1-yl)-1-[4-(7H-pyrrolo[2,3-d]pyrimidin-4-yl)-1H-pyrazol-1-yl]cyclobutyl}acetonitrile]
[1]; [2]
  IC50: < 10 nM
JAK2 (a.a. 828-1132); Table E, 1 mM ATP, listed as 40, isomer 2, read-out: JAK2 IC50 (nM) +
  IC50: < 10 nM

## C[C@H]1CCCN1Cc1cc(F)cc(OC2CCN(C3CC(CC#N)(n4cc(-c5ncnc6[nH]ccc56)cn4)C3)CC2)c1 (single isomer, unassigned; isomer 2) [Example 41, isomer 2]
[1]; [2]
  IC50: < 10 nM
JAK2 (a.a. 828-1132); Table E, 1 mM ATP, listed as 41, isomer 2, read-out: JAK2 IC50 (nM) +
  IC50: < 10 nM

## CCS(=O)(=O)N1CCN([C@H]2C[C@](CC#N)(n3cc(-c4ncnc5[nH]ccc45)cn3)C2)CC1 [Example 35, {trans-3-[4-(ethylsulfonyl)piperazin-1-yl]-1-[4-(7H-pyrrolo[2,3-d]pyrimidin-4-yl)-1H-pyrazol-1-yl]cyclobutyl}acetonitrile]
JAK2 (a.a. 828-1132); Table B, 1 mM ATP, read-out: JAK2 IC50
  IC50: < 10 nM
